These results are taken from patent publication US6436921B1, “Carbapenem derivatives and a preparation method thereof” (Korea Institute of Science and Technology, priority 1997, dated 2002).

Holding throughout (assay): Antibacterial activity test (agar dilution MIC)
Holding throughout (assay type): cell-based
On the technique in general: Agar dilution tests growth on a series of plates holding different concentrations.

The test system of one assay is Klebsiella oxytoca 1082E. The settings on record: for MIC: read-out: Minimum inhibitory concentration. The procedure: (§1) Gram-positive Streptococcus and Staphylococcus and Gram-negative Escherichia coli, Pseudomonas, Salmonella, Klebsiella and Enterobacter were selected for the test. After the cells were diluted and cultured in agar, the compounds of the present invention were treated to obtain the minimum inhibitory concentration in the units of μg/ml.

Another assay concerns Salmonella typhimurium. The settings on record: for MIC: Salmonella enterica, read-out: Minimum inhibitory concentration. The procedure: as §1
The test system of assay [1] is Staphylococcus aureus 503. The settings on record: Staphylococcus aureus 503, agar; for MIC: read-out: Minimum inhibitory concentration. The procedure:
as §1

The test system of assay [2] is Pseudomonas aeruginosa 1771. To be noted: Pseudomonas aeruginosa 1771, agar; for MIC: read-out: Minimum inhibitory concentration. The procedure: as §1
For a further assay, the system named is Escherichia coli TEM. To be noted: for MIC: Escherichia coli, read-out: Minimum inhibitory concentration. As to the method:
as §1

Assay [3] relates to Staphylococcus aureus 285. To be noted: Staphylococcus aureus 285, agar; for MIC: read-out: Minimum inhibitory concentration. As to the method: as §1
The subject of another assay is Escherichia coli 1507E. The settings on record: for MIC: read-out: Minimum inhibitory concentration. As to the method:
as §1

The test system of assay [4] is Pseudomonas aeruginosa 9027. The settings on record: Pseudomonas aeruginosa 9027, agar; for MIC: read-out: Minimum inhibitory concentration. As to the method:
as §1

The next assay concerns Enterobacter cloacae P99. The settings on record: for MIC: read-out: Minimum inhibitory concentration. As to the method:
as §1

The next assay relates to Escherichia coli DC0. To be noted: for MIC: read-out: Minimum inhibitory concentration. The procedure: as §1
In a further assay the test system is Escherichia coli 078. The settings on record: Escherichia coli 078, agar; for MIC: read-out: Minimum inhibitory concentration. As to the method: as §1
Assay [5] relates to Pseudomonas aeruginosa 1592E. The settings on record: for MIC: read-out: Minimum inhibitory concentration. The procedure: as §1
The subject of assay [6] is Klebsiella aerogenes 1522E. The settings on record: for MIC: read-out: Minimum inhibitory concentration. As to the method:
as §1

The subject of assay [7] is Streptococcus pyogenes 77A. To be noted: for MIC: read-out: Minimum inhibitory concentration. As to the method:
as §1

For assay [8], the system named is Enterobacter cloacae 1321E. To be noted: for MIC: read-out: Minimum inhibitory concentration. The procedure:
as §1

Assay [9] relates to Pseudomonas aeruginosa 1771M. The settings on record: Pseudomonas aeruginosa, 1771M, read-out: Minimum inhibitory concentration. As to the method: as §1
Assay [10] has as its system Streptococcus pyogenes 308A. The settings on record: for MIC: read-out: Minimum inhibitory concentration. As to the method:
as §1

For assay [11], the system named is Staphylococcus aureus SG511. To be noted: for MIC: read-out: Minimum inhibitory concentration. As to the method:
as §1

The subject of assay [12] is Streptococcus faecium MD8b. To be noted: for MIC: Enterococcus faecium, read-out: Minimum inhibitory concentration. The procedure: as §1
Another assay has as its system Escherichia coli DC2. The settings on record: for MIC: read-out: Minimum inhibitory concentration. The procedure: as §1

In brackets after ≈: the same amount, converted by molar mass.

As to `C[C@@H](O)[C@H]1C(=O)N2C(C(=O)O)=C(S[C@@H]3CN[C@H](C(=O)NCCC(N)=O)C3)[C@H](C)[C@H]12` [Compound 1], the MIC in the assay with Klebsiella oxytoca 1082E turned out to be 0.098 µg/mL (≈ 0.23 µM); in the assay with Salmonella typhimurium, 0.049 µg/mL (≈ 0.115 µM); in [1], 0.098 µg/mL (≈ 0.23 µM); in assay [2] it was 0.781 µg/mL (≈ 1.83 µM); in the assay on Escherichia coli TEM, 0.025 µg/mL (≈ 0.0586 µM); in assay [3], 0.195 µg/mL (≈ 0.457 µM). For the same compound, the MIC in the assay with Escherichia coli 1507E amounted to 0.025 µg/mL (≈ 0.0586 µM); in assay [4] it was 0.391 µg/mL (≈ 0.917 µM); in the assay with Enterobacter cloacae P99, 0.049 µg/mL (≈ 0.115 µM); with Escherichia coli DC0, 0.025 µg/mL (≈ 0.0586 µM); in the assay with Escherichia coli 078, 0.025 µg/mL (≈ 0.0586 µM); in [5], 0.391 µg/mL (≈ 0.917 µM). Also, the MIC amounted to 0.049 µg/mL (≈ 0.115 µM) in [6]; 0.007 µg/mL (≈ 0.0164 µM) in assay [7]; 0.025 µg/mL (≈ 0.0586 µM) in assay [8]; 0.391 µg/mL (≈ 0.917 µM) in assay [9]; 0.013 µg/mL (≈ 0.0305 µM) in assay [10]; 0.195 µg/mL (≈ 0.457 µM) in assay [11]. Besides, in [12], the MIC turned out to be 12.5 µg/mL (≈ 29.3 µM).
Regarding `CNC(=O)CCNC(=O)[C@@H]1C[C@H](SC2=C(C(=O)O)N3C(=O)[C@H]([C@@H](C)O)[C@H]3[C@H]2C)CN1` [Compound 2], the MIC with Klebsiella oxytoca 1082E amounted to 0.098 µg/mL (≈ 0.222 µM); in the assay on Escherichia coli DC2, 0.098 µg/mL (≈ 0.222 µM); with Salmonella typhimurium, 0.049 µg/mL (≈ 0.111 µM); in assay [1], 0.195 µg/mL (≈ 0.443 µM); in [2], 0.781 µg/mL (≈ 1.77 µM); in the assay on Escherichia coli TEM, 0.025 µg/mL (≈ 0.0568 µM). Also, the MIC in [3] worked out at 0.781 µg/mL (≈ 1.77 µM); in the assay on Escherichia coli 1507E, 0.025 µg/mL (≈ 0.0568 µM); in assay [4], 0.781 µg/mL (≈ 1.77 µM); with Enterobacter cloacae P99 it was 0.049 µg/mL (≈ 0.111 µM); in the assay with Escherichia coli DC0, 0.049 µg/mL (≈ 0.111 µM); in the assay with Escherichia coli 078 it was 0.049 µg/mL (≈ 0.111 µM). The MIC is 0.781 µg/mL (≈ 1.77 µM) in [5]; 0.049 µg/mL (≈ 0.111 µM) in [6]; 0.013 µg/mL (≈ 0.0295 µM) in [7]; 0.025 µg/mL (≈ 0.0568 µM) in assay [8]; 0.391 µg/mL (≈ 0.888 µM) in [9]; 0.013 µg/mL (≈ 0.0295 µM) in [10]. The MIC was determined as 0.391 µg/mL (≈ 0.888 µM) in [11] and 12.5 µg/mL (≈ 28.4 µM) in assay [12].
For `C[C@@H](O)[C@H]1C(=O)N2C(C(=O)O)=C(S[C@@H]3CN[C@H](C(=O)NCCC(=O)NCCO)C3)[C@H](C)[C@H]12` [Compound 3], the Minimum inhibitory concentration in the assay on Klebsiella oxytoca 1082E was found to be 0.098 µg/mL (≈ 0.208 µM); in the assay on Escherichia coli DC2, 0.049 µg/mL (≈ 0.104 µM); in the assay with Salmonella typhimurium, 0.049 µg/mL (≈ 0.104 µM); in assay [1] it was 0.195 µg/mL (≈ 0.414 µM); in assay [2], 1.563 µg/mL (≈ 3.32 µM); in the assay on Escherichia coli TEM (Escherichia coli TEM, agar), 0.025 µg/mL (≈ 0.0531 µM). The Minimum inhibitory concentration in [3] stood at 0.391 µg/mL (≈ 0.831 µM); with Escherichia coli 1507E, 0.025 µg/mL (≈ 0.0531 µM); in [4], 1.563 µg/mL (≈ 3.32 µM); with Enterobacter cloacae P99, 0.049 µg/mL (≈ 0.104 µM); with Escherichia coli DC0, 0.049 µg/mL (≈ 0.104 µM); in the assay on Escherichia coli 078, 0.025 µg/mL (≈ 0.0531 µM). Also, the Minimum inhibitory concentration was determined as 1.563 µg/mL (≈ 3.32 µM) in [5]; 0.049 µg/mL (≈ 0.104 µM) in assay [6]; 0.007 µg/mL (≈ 0.0149 µM) in assay [7]; 0.025 µg/mL (≈ 0.0531 µM) in assay [8]; 0.013 µg/mL (≈ 0.0276 µM) in [10]; 0.195 µg/mL (≈ 0.414 µM) in [11]. The compound further returned a Minimum inhibitory concentration in [12] of 12.5 µg/mL (≈ 26.6 µM).
Consider `CNS(=O)(=O)CCNC(=O)[C@@H]1C[C@H](SC2=C(C(=O)O)N3C(=O)[C@H]([C@@H](C)O)[C@H]3[C@H]2C)CN1` [Compound 11], for which the MIC in the assay with Klebsiella oxytoca 1082E was found to be 0.049 µg/mL (≈ 0.103 µM); with Escherichia coli DC2, 0.025 µg/mL (≈ 0.0525 µM); in the assay on Salmonella typhimurium, 0.025 µg/mL (≈ 0.0525 µM); in [1], 0.098 µg/mL (≈ 0.206 µM); in assay [2] it was 0.195 µg/mL (≈ 0.409 µM); with Escherichia coli TEM, 0.013 µg/mL (≈ 0.0273 µM). Moreover, the MIC was 0.195 µg/mL (≈ 0.409 µM) in assay [3]; 0.013 µg/mL (≈ 0.0273 µM) with Escherichia coli 1507E; 0.391 µg/mL (≈ 0.82 µM) in assay [4]; 0.049 µg/mL (≈ 0.103 µM) with Enterobacter cloacae P99; 0.025 µg/mL (≈ 0.0525 µM) in the assay on Escherichia coli DC0; 0.025 µg/mL (≈ 0.0525 µM) with Escherichia coli 078. Besides, the MIC in assay [5] turned out to be 0.195 µg/mL (≈ 0.409 µM); in assay [6] it was 0.049 µg/mL (≈ 0.103 µM); in assay [7], 0.004 µg/mL (≈ 0.00839 µM); in assay [8], 0.025 µg/mL (≈ 0.0525 µM); in assay [9], 0.195 µg/mL (≈ 0.409 µM); in [10], 0.013 µg/mL (≈ 0.0273 µM). Also, the MIC in [11] amounted to 0.098 µg/mL (≈ 0.206 µM); in assay [12], 6.25 µg/mL (≈ 13.1 µM).
